{
  "source": "patent US20240382519A1",
  "about": "“MONOVALENT COPPER/PORPHYRIDIUM SP. POLYSACCHARIDE COMPLEXES, RELATED PRODUCTS AND METHODS OF PREPARATION THEREOF” (B.G. NEGEV TECHNOLOGIES AND APPLICATIONS LTD., AT …, priority 2021, published 2024)",
  "settings_in_all_cases": "CFU after 24 h, 0.07% (w/v) polysaccharide, 30 ppm copper, Table 3(b)",
  "key": {"B. subtilis": {"system": "B. subtilis"}, "P. aeruginosa": {"system": "P. aeruginosa"}, "S. aureus": {"system": "S. aureus"}, "E. coli": {"system": "E. coli"}, "C. albicans": {"system": "C. albicans"}, "A. baumannii": {"system": "A. baumannii"}},
  "data": [
    {"smiles": "[Cl][Cu][Cl]", "note": "[CuCl2]", "values": [
      {"measurement": "Cell Viability [%]", "setting": "B. subtilis", "result": "82.0 ± 1.0", "unit": "%"},
      {"measurement": "Cell Viability [%]", "setting": "P. aeruginosa", "result": "82.6 ± 6.8", "unit": "%"},
      {"measurement": "Cell Viability [%]", "setting": "S. aureus", "result": "81.6 ± 4.5", "unit": "%"},
      {"measurement": "Cell Viability [%]", "setting": "E. coli", "result": "81.3 ± 5.6", "unit": "%"},
      {"measurement": "Cell Viability [%]", "setting": "C. albicans", "result": "71.0 ± 1.0", "unit": "%"},
      {"measurement": "Cell Viability [%]", "setting": "A. baumannii", "result": "81.5 ± 7.4", "unit": "%"}
    ]},
    {"smiles": "[Cl][Cu]", "note": "[CuCl, cuprous chloride]", "values": [
      {"measurement": "Cell Viability [%]", "setting": "B. subtilis", "result": "52.6 ± 5.4", "unit": "%"},
      {"measurement": "Cell Viability [%]", "setting": "P. aeruginosa", "result": "38.9 ± 4.5", "unit": "%"},
      {"measurement": "Cell Viability [%]", "setting": "C. albicans", "result": "90.3 ± 0.6", "unit": "%"},
      {"measurement": "Cell Viability [%]", "setting": "A. baumannii", "result": "37.4 ± 3.5", "unit": "%"}
    ]},
    {"smiles": "[O]=[Cu]", "note": "[CuO]", "values": [
      {"measurement": "Cell Viability [%]", "setting": "B. subtilis", "result": "72.7 ± 4.0", "unit": "%"},
      {"measurement": "Cell Viability [%]", "setting": "P. aeruginosa", "result": "79.4 ± 8.9", "unit": "%"},
      {"measurement": "Cell Viability [%]", "setting": "S. aureus", "result": "71.2 ± 8.9", "unit": "%"},
      {"measurement": "Cell Viability [%]", "setting": "E. coli", "result": "78.1 ± 6.5", "unit": "%"},
      {"measurement": "Cell Viability [%]", "setting": "C. albicans", "result": "84.7 ± 4.0", "unit": "%"},
      {"measurement": "Cell Viability [%]", "setting": "A. baumannii", "result": "87.1 ± 2.3", "unit": "%"}
    ]}
  ]
}
